Earlier results in patent US9968546B2, “Topical composition for skin treatment to reduce lines and wrinkles of the face and body using a dual DNA repair mechanism to address damage caused by aging and ultra-violet induced damage to the skin with combination of skin turgor enhancement compounds” (priority 2015, dated 2018).
Each block holds one molecule with its values, some of them ahead of it.

Columns and labels:
melanin synthesis = settings: concentration of 0.1%
[1] = clinically, versus regular Vitamin E

tyrosinase-inhibition activity relative to Kojic acid (tyrosinase; versus Kojic acid): 25 times
tyrosinase-inhibition activity relative to ascorbic acid (tyrosinase; versus ascorbic acid): 75 times
Molecule: CC1(C)C=Cc2c(ccc3c2OC[C@@H](c2ccc(O)cc2O)C3)O1 [Glabridin]

Molecule: CCCCCCCCC(CCCCCC)C(=O)OC[C@H](OC(=O)C(CCCCCC)CCCCCCCC)[C@H]1OC(=O)C(OC(=O)C(CCCCCC)CCCCCCCC)=C1OC(=O)C(CCCCCC)CCCCCCCC (stereo partly drawn) [tetrahexyldecyl ascorbate]
reduction of melanin synthesis (melanin synthesis): 80%
8-OHdG induced by UV-A radiation (8-OHdG): decreases
p53 expression induced by UV-B radiation (p53 expression): decreases

Molecule: Tocotrienol
strength and effectiveness at repairing skin damage relative to regular Vitamin E [1]: 40-50 times
